Assays:
[1] = system: human 18S rDNA gene, 500 bp amplicon; settings: t0 to t4 d storage (FIG. 15)
Description: Cell-free DNA from 4-4.8 ml stabilized or unstabilized urine was isolated with the QIAsymphony PAXgene Blood ccfDNA Kit (QIAGEN kit) protocol. The QIAsymphony robot mixed urine with proteinase K, binding buffer and magnetic beads. Beads with bound DNA were washed three times and DNA was eluted using 60 μl elution buffer.
To measure the amount of cell-free DNA a real time PCR assay on Abi Prism HT7900 (Life technologies) was performed with 8 μl of eluate. In a 20 μl assay volume using QuantiTect Multiplex PCR Kit reagents (QIAGEN GmbH) two fragments of the human 18S rDNA gene were amplified in a multiplex PCR. Total quantification was achieved by comparison with a standard curve generated with human genomic DNA samples equivalent to 10.000 to 10 copies of human 18s rDNA gene.
Quantification of the 66 bp fragment was used to reflect the total amount of 18S rDNA copies in the urine. Quantification of the 500 bp was used to determine the amount of 18S rDNA copies which derived from apoptotic or mechanically lysed urine cells.
200 ml urine each from four female and two male donors was collected. Aliquots of 10 ml urine were mixed within 15 min after sampling with 1.7 ml PBS or stabilizing reagent. […] The copy numbers of 18s rDNA were determined from duplicate samples in triplicates by real time PCR.

[2] = system: human 18S rDNA gene, 66 bp amplicon; assay: Real time PCR of 18S rDNA 66 bp fragment in cell-free DNA from urine
Description: (§1) Cell-free DNA from 4-4.8 ml stabilized or unstabilized urine was isolated with the QIAsymphony PAXgene Blood ccfDNA Kit (QIAGEN kit) protocol.
Total quantification was achieved by comparison with a standard curve generated with human genomic DNA samples equivalent to 10.000 to 10 copies of human 18s rDNA gene.
Quantification of the 500 bp was used to determine the amount of 18S rDNA copies which derived from apoptotic or mechanically lysed urine cells. […] Therefore 500 bp fragments can be considered to be derived from apoptotic, lysed or otherwise destructed urine cells.
All samples were processed in duplicates.
(§2) Cell-free DNA was subsequently purified on the QIAsymphony either directly after collection (t0) or after 1, 3 and 9 days incubation at room temperature. […] Relative yield of Y-chromosomale DYS14 DNA was determined from duplicate samples by real time PCR (no PCR replicates).
200 ml urine each from three donors was collected. […] For processing, the samples were centrifuged 15 min at 1900×g. Supernatant was centrifuged again (10 min 1900×g) and the supernatant from the second centrifugation was used for duplicate purification of cell-free DNA on a QIAsymphony system. The cell pellet obtained after the first centrifugation was resolved in 300 μl PBS. 200 μl of the resuspended cell pellet was used for extraction of the genomic DNA using the QIAamp Blood Mini kit. The remaining 100 μl were centrifuged on a glass slide and stained with Papanicolaou (see FIG. 7). […] Genomic DNA yield was measured on a Nanodrop instrument.
Supernatant was centrifuged again (10 min at 1900×g) and the supernatant from the second centrifugation was used for duplicate purification of cell-free DNA on the QIAsymphony.
For EDTA stabilized samples the overall increase in DNA can be deduced from the observed degradation (Dys 14—see FIG. 16) and increase (18s—see FIGS. 14 and 15).

[3] = system: human Y-chromosomale DYS14 gene, 66 bp amplicon; assay: Real time PCR for Y-chromosomal DYS14 DNA: preservation of male cell-free DNA spiked into female urine
Description: as §1
To measure the degradation of cell-free DNA, the relative yield of male cell-free DNA spiked into female samples was analyzed. A real time PCR assay on RotorGene Q (QIAGEN GmbH) was performed with 8 μl of eluate.
Urine from one donor was centrifuged twice to remove all cells from the urine for spike-in into female urine. Urine was collected in larger bottles from two female and two male donors. In case of the two female donors 25 ml centrifuged and therefore cell-free male urine was added to the 200 ml female urine. Approximately 120 ml urine from each donor was filled into BD Vacutainer Urine Collection Cups. Urine was transferred from the cups into two spray dried EDTA tubes, one PAXgene Blood ccfDNA tube and one Streck cell-free DNA BCT tube per donor. One of the EDTA tubes per donor was opened and 1.7 ml of stabilization reagent R1 was added. All tubes were carefully inverted 5 times to mix the urine with the components.
as §2
Urine from one donor was centrifuged twice to remove all cells from the urine for spike in into female urine. 200 ml urine each from six female donors were collected in large bottles and mixed with 25 ml cell-free male urine directly after collection. Aliquots of 10 ml urine ([…]) were mixed with 1.7 ml reagent. […] All samples were processed in duplicates. Real time PCR for y-chromosomale DYS14 DNA was performed from duplicate samples.
To analyse the effect of pH on cell-free DNA preservation, urine from one donor was centrifuged twice to remove all cells from the urine for spike in into female urine. 200 ml urine each from four female donors were collected in large bottles and mixed with 25 ml cell-free male urine directly after collection. […]

O=C(O)CN(CCN(CC(=O)O)CC(=O)O)CC(=O)O [EDTA, Ethylenediaminetetraacetic acid]
decrease in the 500 bp fragment [1]: approx. 32 fold | Delta Ct t0-t4 d 18 s 66 bp ([2]; 4 days storage at RT (FIG. 14)): 2 | total DNA in urine over storage (18s rDNA 66 bp copies versus t0), words ([2]; Example 2, BD Vacutainer cup to tubes, 1, 3 and 9 days at RT, 4 donors (FIG. 3)): nor an increase in total DNA comprised in the urine due to DNA release from cells | Overall increase (in DNA resulting from cells) ([2]; deduced from observed degradation (Dys 14) and increase (18s), t0 to t4 d): 4 × 4 = 16 fold | Increase (of 18S 66 bp DNA, from Delta Ct) ([2]; t0 to t4 d at RT): 4 fold | change in the 66 bp fragment ([2]; t0 to t4 d storage (FIG. 14)): small increase | preservation of spiked in male cell-free DNA (DYS14 delta Ct versus t0), words ([3]; Example 2, 2 female donors, 1, 3 and 9 days at RT (FIG. 4)): neither prevents sufficiently cell free DNA degradation | Delta Ct t0-t4 d Dys 14 ([3]; male cell-free urine spiked in female urine, 4 days storage at RT (FIG. 16)): ~2 | Reduction (of DYS14 DNA, from Delta Ct) ([3]; t0 to t4 d at RT): 4 fold
